System: Arabidopsis wild-type plants (Col-0) detached leaves
Assay: Differential gene expression study (RNA sequencing) in senescent detached leaves
Description: Comparative gene expression analysis in Arabidopsis model was performed to gain information about the reprogramming of gene transcription when senescent leaves were treated with 6-(3-methoxybenzylamino)-9-β-D-arabinofuranosylpurine (3MeOBAPA).
For isolation of total RNA, Arabidopsis wild-type plants (Col-0) were used, which were either treated with 3MeOBAPA or left untreated. Wild-type plants were grown in soil for 30 days, and then leaves of similar size and chlorophyll content were cut and immediately used for the treatment. At least 20 detached leaves were submerged in 1×MS medium supplemented with 10 μM 3MeOBAPA. Control samples were mock treated with DMSO only. After incubation for 6 h or 48 h in the dark, detached leaves were frozen in liquid nitrogen and used for RNA isolation; 150 mg of liquid nitrogen-ground material was used per isolation. cDNA sequencing libraries were prepared with the Illumina TruSeq Stranded mRNA LT Sample Prep Kit (Illumina, San Diego, Calif.) according to standard Illumina's protocols and sequenced on HiSeq 2500 apparatus (50 bp single-end reads). […] To gain insight into the molecular mechanism of 3MeOBAPA action in Arabidopsis we decided to analyze the gene expression patterns via comparison of mock (DMSO)-treated plants with those obtained after i) short time treatment with 3MeOBAPA (6 h) and ii) long time treatment (48 h). This comparison leads to identification of group of genes with similar kinetic of expression and helps to understand possible mechanism of regulation. For data analysis, we performed ab initio method where sequencing reads were mapped to the reference genome.

With `COc1cccc(CNc2ncnc3c2ncn3[C@@H]2O[C@H](CO)[C@@H](O)[C@@H]2O)c1` [6-(3-methoxybenzylamino)-9-β-D-arabinofuranosylpurine] the “number of genes downregulated in both groups” value (6 h and 48 h overlap) was 724 genes, the “number of genes upregulated in both groups” value (6 h and 48 h overlap) was 1102 genes and the “logFC AT1G02790 Polygalacturonase 4 (PGA4)” value (48 h, 10 μM) was 8.59. The “logFC AT1G05580 Cation/H(+) exchanger 23 (CHX23)” value (48 h, 10 μM) was 5.46, the “logFC AT1G10585 Basic helix-loop-helix (bHLH) DNA-binding superfamily protein” value (48 h, 10 μM) was 4.85 and the “logFC AT1G15540 2-oxoglutarate and Fe(II)-dependent oxygenase superfamily protein” value (48 h, 10 μM) was 5.63. The “logFC AT1G19670 Chlorophyllase-1 (CLH1)” value (48 h, 10 μM) was 6.42, the “logFC AT1G55560 SKU5 similar 14 (SKS14)” value (48 h, 10 μM) was 8.75 and the “logFC AT1G59860 17.6 kDa class I heat shock protein 1 (HSP17.6A)” value (48 h, 10 μM) was 5.47. For the same compound, the “logFC AT1G59950 NAD(P)-linked oxidoreductase superfamily protein” value (48 h, 10 μM) was 5.72, the “logFC AT1G75830 Defensin-like protein 1.1 (PDF1.1)” value (48 h, 10 μM) was 7.85 and the “logFC AT1G76640 Calcium-binding EF-hand family protein (CML39)” value (48 h, 10 μM) was 7.06. The “logFC AT2G02010 Glutamate decarboxylase 4 (GAD4)” value (48 h, 10 μM) was 5.09, the “logFC AT2G04460 Transposable element gene” value (48 h, 10 μM) was 5.43 and the “logFC AT2G18150 Peroxidase 15 (PER15)” value (48 h, 10 μM) was 7.22. For the same compound, the “logFC AT2G21900 WRKY transcription factor 59 (WRKY59)” value (48 h, 10 μM) was 5.81, the “logFC AT2G26010 Defensin-like protein 1.3 (PDF1.3)” value (48 h, 10 μM) was 8.23 and the “logFC AT2G26020 Defensin-like protein 1.2B (PDF1.2B)” value (48 h, 10 μM) was 6.04. The “logFC AT2G26695 Ran BP2/NZF zinc finger-like superfamily protein” value (48 h, 10 μM) was 5.90, the “logFC AT2G28210 Alpha carbonic anhydrase 2 (ATACA2)” value (48 h, 10 μM) was 5.86 and the “logFC AT2G37430 Zinc finger protein ZAT11” value (48 h, 10 μM) was 4.96. The “logFC AT2G39030 L-ornithine N5-acetyltransferase (NATA1)” value (48 h, 10 μM) was 5.48, the “logFC AT2G47040 Pectin methylesterase Vanguard1 (VGD1)” value (48 h, 10 μM) was 5.89 and the “logFC AT2G47050 Plant invertase/pectin methylesterase inhibitor superfamily protein” value (48 h, 10 μM) was 5.82. The “logFC AT3G05610 Pectinesterase/pectinesterase inhibitor 21 (PME21)” value (48 h, 10 μM) was 5.58, the “logFC AT3G07820 Pectin lyase-like superfamily protein” value (48 h, 10 μM) was 6.45 and the “logFC AT3G09340 Transmembrane amino acid transporter family protein” value (48 h, 10 μM) was 8.54. For the same compound, the “logFC AT3G11340 UDP-Glycosyltransferase superfamily protein” value (48 h, 10 μM) was 6.60, the “logFC AT3G13400 SKU5 similar 13 (SKS13)” value (48 h, 10 μM) was 5.57 and the “logFC AT3G28153 Transposable element gene” value (48 h, 10 μM) was 5.70. The “logFC AT3G28155 ARM repeat superfamily protein” value (48 h, 10 μM) was 6.06, the “logFC AT3G44830 Putative phospholipid: diacylglycerol acyltransferase 2 (PDAT2)” value (48 h, 10 μM) was 4.91 and the “logFC AT3G62710 Glycosyl hydrolase family protein” value (48 h, 10 μM) was 5.26. For the same compound, the “logFC AT4G01390 TRAF-like family protein” value (48 h, 10 μM) was 6.24, the “logFC AT4G21830 Peptide methionine sulfoxide reductase B7 (MSRB7)” value (48 h, 10 μM) was 5.95 and the “logFC AT4G22030 F-box domain, cyclin-like, F-box domain, Skp2-like protein” value (48 h, 10 μM) was 5.02. The “logFC AT4G22620 SAUR-like auxin-responsive family protein” value (48 h, 10 μM) was 5.05, the “logFC AT4G24350 Phosphorylase superfamily protein” value (48 h, 10 μM) was 6.45 and the “logFC AT4G26010 Peroxidase 44 (PER44)” value (48 h, 10 μM) was 7.92. The “logFC AT4G31950 Cytochrome P450 82C3 (CYP82C3)” value (48 h, 10 μM) was 5.29, the “logFC AT4G35010 Beta-galactosidase 11 (BGAL11)” value (48 h, 10 μM) was 5.33 and the “logFC AT4G37780 Myb domain protein 87 (MYB87)” value (48 h, 10 μM) was 6.88. For the same compound, the “logFC AT4G39320 Microtubule-associated protein-related” value (48 h, 10 μM) was 5.09, the “logFC AT5G03610 GDSL esterase/lipase” value (48 h, 10 μM) was 4.61 and the “logFC AT5G12960 Putative glycosyl hydrolase” value (48 h, 10 μM) was 5.26. For the same compound, the “logFC AT5G44420 Defensin-like protein 1.2A (PDF1.2A)” value (48 h, 10 μM) was 8.15, the “logFC AT5G44430 Defensin-like protein 1.2C (PDF1.2C)” value (48 h, 10 μM) was 8.87 and the “logFC AT5G45880 Pollen Ole e 1 allergen and extensin family protein” value (48 h, 10 μM) was 5.52. For the same compound, the “logFC AT5G52670 Copper transport family protein” value (48 h, 10 μM) was 6.03, the “logFC AT5G61160 Agmatine coumaroyltransferase (ACT)” value (48 h, 10 μM) was 5.05 and the “logFC AT5G62720 Integral membrane HPP family protein” value (48 h, 10 μM) was 5.31. The “logFC AT5G63270 RPM1-interacting protein 4 (RIN4) family protein” value (48 h, 10 μM) was 7.11, the “number of downregulated genes (P≤0.05)” value (48 h, 10 μM, vs mock) was 7095 genes and the “number of upregulated genes (P≤0.05)” value (48 h, 10 μM, vs mock) was 7509 genes.
